target: T1, S-nitrosoglutathione reductase (GSNOR) (Homo sapiens, UniProt P11766); assay: GSNOR assay (inhibition of GSNOR activity, NADH absorbance at 340 nm); type: biochemical; settings: not given
T1 construct: made in house; host or cells: E. coli
Description: Various compounds were tested in vitro for their ability to inhibit GSNOR activity.
GSNOR expression and purification is described in Biochemistry 2000, 39, 10720-10729.
Pre-cultures were grown from stabs of a GSNOR glycerol stock in 2XYT media containing 100 ug/ml ampicillin after an overnight incubation at 37° C. […] GSNOR expression was induced with 0.1% arabinose in an overnight incubation at 20° C.
E. coli cell paste was lysed by nitrogen cavitation and the clarified lysate purified by Ni affinity chromatography on an AKTA FPLC (Amersham Pharmacia). The column was eluted in 20 mM Tris pH 8.0/250 mM NaCl with a 0-500 mM imidazole gradient. Eluted GSNOR fractions containing the Smt-GSNOR fusion were digested overnight with Ulp-1 at 4° C. to remove the affinity tag then re-run on the Ni column under the same conditions. GSNOR was recovered in the flowthrough fraction and for crystallography is further purified by Q-Sepharose and Heparin flowthrough chromatography in 20 mM Tris pH 8.0, 1 mM DTT, 10 uM ZnSO4.
GSNOR assay: GSNO and enzyme/NADH Solutions are made up fresh each day. The solutions are filtered and allowed to warm to room temperature. GSNO solution: 100 mM NaPO4 (pH 7.4), 0.480 mM GSNO. 396 μL of GSNO Solution is added to a cuvette followed by 8 μL of test compound in DMSO (or DMSO only for full reaction control) and mixed with the pipette tip. Compounds to be tested are made up at a stock concentration of 10 mM in 100% DMSO. 2 fold serial dilutions are done in 100% DMSO. 8 μL of each dilution are added to an assay so that the final concentration of DMSO in the assay is 1%. The concentrations of compounds tested range from 100 to 0.003 μM. Enzyme/NADH solution: 100 mM NaPO4 (pH 7.4), 0.600 mM NADH, 1.0 μg/mL GSNO Reductase. 396 μL of the Enzyme/NADH solution is added to the cuvette to start the reaction. The cuvette is placed in the Cary 3E UV/Visible Spectrophotometer and the change in 340 nm absorbance/min at 25° C. is recorded for 3 minutes. The assays are done in triplicate for each compound concentration. IC50's for each compound are calculated using the standard curve analysis in the Enzyme Kinetics Module of SigmaPlot.
Final assay conditions: 100 mM NaPO4, pH 7.4, 0.240 mM GSNO, 0.300 mM NADH, 0.5 μg/mL GSNO Reductase, and 1% DMSO. Final volume: 800 μL/cuvette.

T1 sequence (P11766 whole entry): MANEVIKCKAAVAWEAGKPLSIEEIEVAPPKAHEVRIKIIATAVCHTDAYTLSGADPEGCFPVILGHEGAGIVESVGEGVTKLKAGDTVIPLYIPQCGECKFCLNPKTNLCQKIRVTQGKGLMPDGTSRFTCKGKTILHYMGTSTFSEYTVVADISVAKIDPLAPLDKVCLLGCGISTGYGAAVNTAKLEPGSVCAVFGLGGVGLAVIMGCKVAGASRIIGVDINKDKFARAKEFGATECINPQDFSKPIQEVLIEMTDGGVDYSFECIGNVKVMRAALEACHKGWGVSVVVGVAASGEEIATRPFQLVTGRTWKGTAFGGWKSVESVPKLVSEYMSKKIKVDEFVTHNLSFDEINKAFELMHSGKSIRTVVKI

Row | SMILES | IC50
1 | O=C(O)c1ccc(-n2c(C(F)(F)F)nc3cc(O)ccc3c2=O)cc1 [VIII-2, 4-(7-hydroxy-4-oxo-2-(trifluoromethyl)quinazolin-3(4H)-yl)benzoic acid] | 100 to 1000 nM

same assay, conditions: GSNOR inhibitor activity, Tables 1-6; read-out: IC50 range

Row | SMILES | IC50
2 | O=C(O)c1ccc(-c2ccc3cc(O)ccc3[n+]2[O-])c(Cl)c1 [Compound I-50, 2-(4-carboxy-2-chlorophenyl)-6-hydroxyquinoline 1-oxide] | 100 to 1000 nM
3 | O=C(O)c1ccc(-c2cc(F)c3cc(O)ccc3n2)c(Cl)c1 [Compound I-37, 3-chloro-4-(4-fluoro-6-hydroxyquinolin-2-yl)benzoic acid] | < 100 nM
4 | O=c1c(C2CCC(c3nn[nH]n3)CC2)c(C(F)(F)F)oc2cc(O)ccc12 (centres unmarked) [IV-36] | < 100 nM
5 | O=C(O)[C@H]1CC[C@@H](c2nc3ccc(O)cc3nc2C(F)(F)F)CC1 [II-28, (cis)-4-(6-hydroxy-3-(trifluoromethyl)quinoxalin-2-yl)cyclohexanecarboxylic acid] | 1000 to 10000 nM
6 | COc1cc(C(=O)O)ccc1-c1ccc2cc(O)ccc2c1 [III-3] | < 100 nM
7 | O=C(O)c1ccc(-c2nc3ccc(O)cc3nc2C(F)(F)F)c(F)c1 [II-26, 3-fluoro-4-(6-hydroxy-3-(trifluoromethyl)quinoxalin-2-yl)benzoic acid] | < 100 nM
8 | O=C(O)c1ccc(-c2cc(F)c3cc(O)ccc3c2)c(F)c1 [III-38, 3-fluoro-4-(4-fluoro-6-hydroxynaphthalen-2-yl)benzoic acid] | < 100 nM
9 | Oc1ccc2nc(-c3ccc(-c4nn[nH]n4)s3)ccc2c1 [Compound I-38] | 100 to 1000 nM
10 | O=C(O)c1ccc(CCC(=O)c2ccc(O)c(F)c2F)cc1 [VI-29, 4-(3-(2,3-difluoro-4-hydroxyphenyl)-3-oxopropyl)benzoic acid] | 1000 to 10000 nM
11 | O=c1c(Oc2ccc([N+](=O)[O-])c(O)c2)c(C(F)(F)F)oc2cc(O)ccc12 [Compound V-16, 7-hydroxy-3-(3-hydroxy-4-nitrophenoxy)-2-(trifluoromethyl)-4H-chromen-4-one] | < 100 nM
12 | O=C(O)c1ccc(NC(=O)c2ccc(O)cc2O)cc1 [VI-16, 4-(2,4-dihydroxybenzamido)benzoic acid] | 1000 to 10000 nM
13 | O=C(O)c1ccc(-c2ccc3c(F)c(O)ccc3c2)c(F)c1 [III-32] | < 100 nM
14 | O=C(O)c1ccc(Oc2c(-c3ccc(Cl)cc3)oc3cc(O)ccc3c2=O)cc1 [Compound V-7, 4-(2-(4-chlorophenyl)-7-hydroxy-4-oxo-4H-chromen-3-yloxy)benzoic acid] | 1000 to 10000 nM
15 | O=C(O)c1ccc(/C=C/c2ccc(O)cc2O)cc1 [VI-13, (E)-4-(2,4-dihydroxystyryl)benzoic acid] | 1000 to 10000 nM
16 | O=C(O)c1ccc(Nc2c(C(F)(F)F)oc3cc(O)ccc3c2=O)cc1 [Compound V-15, 4-(7-hydroxy-4-oxo-2-(trifluoromethyl)-4H-chromen-3-ylamino)benzoic acid] | 1000 to 10000 nM
17 | O=C(O)c1ccc(-c2cc(F)c3c(F)c(O)ccc3c2)c(F)c1 [III-40, 4-(4,5-difluoro-6-hydroxynaphthalen-2-yl)-3-fluorobenzoic acid] | < 100 nM
18 | Oc1ccc2nc(-c3ccc(-c4nn[nH]n4)cc3Cl)ccc2c1 [Compound I-23] | < 100 nM
19 | O=C(O)c1ccc(NC(=O)c2ccc(O)cc2F)cc1 [VI-15, 4-(2-fluoro-4-hydroxybenzamido)benzoic acid] | 100 to 1000 nM
20 | O=[N+]([O-])c1cc(-c2ccc3cc(O)ccc3n2)ccc1O [Compound I-61, 2-(4-hydroxy-3-nitrophenyl)quinolin-6-ol] | 1000 to 10000 nM

Row | SMILES | IC50
21 | CCOc1cc(-c2c(C(F)(F)F)oc3cc(O)ccc3c2=O)cc([N+](=O)[O-])c1O [IV-46, 3-(3-ethoxy-4-hydroxy-5-nitrophenyl)-7-hydroxy-2-(trifluoromethyl)-4H-chromen-4-one] | < 100 nM
22 | O=C(O)c1ccc(Oc2c(-c3ccc(F)cc3)oc3cc(O)ccc3c2=O)cc1 [Compound V-8, 4-(2-(4-fluorophenyl)-7-hydroxy-4-oxo-4H-chromen-3-yloxy)benzoic acid] | 1000 to 10000 nM
23 | O=C(O)c1ccc(CC(=O)c2cc(F)c(O)cc2F)c(F)c1 [VI-7, 4-(2-(2,5-difluoro-4-hydroxyphenyl)-2-oxoethyl)-3-fluorobenzoic acid] | 100 to 1000 nM
24 | Oc1ccc2nc(-c3ccc(-c4nn[nH]n4)cc3)cc(Cl)c2c1 [Compound I-11] | < 100 nM
25 | CC(C)c1oc2cc(O)ccc2c(=O)c1Oc1ccc(C(=O)O)cc1 [Compound V-3, 4-(7-hydroxy-2-isopropyl-4-oxo-4H-chromen-3-yloxy)benzoic acid] | 1000 to 10000 nM
26 | O=C(O)c1ccc(-c2ccc3cc(O)ccc3c2)c(N2CCOCC2)c1 [III-10] | 100 to 1000 nM
27 | O=C(O)c1ccc(COc2ccc(O)cc2F)c(F)c1 [VI-19, 3-fluoro-4-((2-fluoro-4-hydroxyphenoxy)methyl)benzoic acid] | 100 to 1000 nM
28 | O=C(O)c1ccc(NCc2ccc(O)c(F)c2F)c(F)c1 [VI-32, 4-((2,3-difluoro-4-hydroxybenzyl)amino)-3-fluorobenzoic acid] | 100 to 1000 nM
29 | O=C(O)c1ccc(Oc2c(-c3ccccc3)oc3cc(O)ccc3c2=O)cc1 [Compound V-2, 4-((7-hydroxy-4-oxo-2-phenyl-4H-chromen-3-yl)oxy)benzoic acid] | 1000 to 10000 nM
30 | O=C(O)c1ccc(-c2ccc3c(F)c(O)ccc3c2)c(Cl)c1 [III-30] | < 100 nM
31 | O=C(O)c1cnc(-c2ccc3cc(O)ccc3c2)cn1 [III-8] | 100 to 1000 nM
32 | O=C(O)c1ccc(-c2cc3ccc(O)cc3cc2F)cc1 [III-23, 4-(3-fluoro-6-hydroxynaphthalen-2-yl)benzoic acid] | < 100 nM
33 | CN(c1ccc(C(=O)O)cc1)c1c(C(F)(F)F)oc2cc(O)ccc2c1=O [Compound V-14, 4-((7-hydroxy-4-oxo-2-(trifluoromethyl)-4H-chromen-3-yl)(methyl)amino)benzoic acid] | 1000 to 10000 nM
34 | Oc1ccc2nc(C(F)(F)F)c(-c3ccc(-c4nnn[nH]4)cc3)nc2c1 [II-16] | 100 to 1000 nM
35 | O=C(O)c1ccc(-c2ccc3cc(O)ccc3c2)nn1 [III-11] | 1000 to 10000 nM
36 | O=C(O)c1csc(-c2c(C(F)(F)F)oc3cc(O)ccc3c2=O)c1 [IV-35] | 100 to 1000 nM
37 | O=C(O)[C@H]1CC[C@H](c2nc3ccc(O)cc3nc2C(F)(F)F)CC1 [II-27, (trans)-4-(6-hydroxy-3-(trifluoromethyl)quinoxalin-2-yl)cyclohexanecarboxylic acid] | < 100 nM
38 | O=C(O)c1ccc(NCc2ccc(O)cc2F)c(F)c1 [VI-33, 3-fluoro-4-((2-fluoro-4-hydroxybenzyl)amino)benzoic acid] | 1000 to 10000 nM

same assay, conditions: Table 7; GSNOR inhibition, IC50 range class a/b/c; read-out: IC50

Row | SMILES | IC50
39 | CCCn1c(-c2ccc(O)cc2)ccc1-c1ccc(C(=O)O)cc1 [VII-37, 4-(5-(4-hydroxyphenyl)-1-propyl-1H-pyrrol-2-yl)benzoic acid] | < 100 nM
40 | O=C(O)c1ccc(-c2cnc(-c3ccc(O)cc3)nc2)cc1 [VII-15, 4-(2-(4-hydroxyphenyl)pyrimidin-5-yl)benzoic acid] | 1000 to 10000 nM
41 | O=C(O)c1ccc(-c2ccc(-c3ccc(O)c(F)c3)s2)s1 [VII-17, 5′-(3-fluoro-4-hydroxyphenyl)-[2,2′-bithiophene]-5-carboxylic acid] | < 100 nM
42 | O=C(O)c1ccc(-c2ncc(-c3ccc(O)cc3)s2)s1 [VII-13, 5-(5-(4-hydroxyphenyl)thiazol-2-yl)thiophene-2-carboxylic acid] | 100 to 1000 nM
43 | O=C(O)c1ccc(-c2ncc(-c3ccc(O)cc3)cn2)cc1 [VII-14, 4-(5-(4-hydroxyphenyl)pyrimidin-2-yl)benzoic acid] | 1000 to 10000 nM
44 | O=C(O)c1ccc(-c2csc(-c3ccc(O)cc3)n2)s1 [VII-9, 5-(2-(4-hydroxyphenyl)thiazol-4-yl)thiophene-2-carboxylic acid] | < 100 nM
45 | CC(C)CCn1c(-c2ccc(O)cc2)ccc1-c1ccc(C(=O)O)cc1 [VII-28, 4-(5-(4-hydroxyphenyl)-1-isopentyl-1H-pyrrol-2-yl)benzoic acid] | < 100 nM

same assay, conditions: Table 8; GSNOR inhibition, IC50 range class a/b/c; read-out: IC50

Row | SMILES | IC50
46 | CC1Cc2cc(O)ccc2C(=O)N1[C@H]1CC[C@H](C(=O)O)CC1 (stereo partly drawn) [VIII-17, (trans)-4-(6-hydroxy-3-methyl-1-oxo-3,4-dihydroisoquinolin-2(1H)-yl)cyclohexanecarboxylic acid] | 1000 to 10000 nM
47 | Cc1cc2cc(O)ccc2c(=O)n1[C@H]1CC[C@H](C(=O)O)CC1 [VIII-12, (trans)-4-(6-hydroxy-3-methyl-1-oxoisoquinolin-2(1H)-yl)cyclohexanecarboxylic acid] | 100 to 1000 nM

From patent US20140094465A1, “Compounds as S-Nitrosoglutathione Reductase Inhibitors” (N30 PHARMACEUTICALS, INC., priority 2011, published 2014)
